Blank lines part the entries; values can stand above or below the molecule they belong to.
Biological target: T1, cloned human GLP-1 receptor (Homo sapiens, UniProt P43220)
T1 construct: expressed in transfected cells; host or cells: CHO or HEK-293 cells
Test: Functional cell-based assay: cAMP functional assay
Conditions: for Emax: 0.5 h, percentage relative to maximal GLP-1-induced cAMP accumulation, na = not active in the assay, read-out: % activation
Outline: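 Monolayer cells incubated 30 min at 37 °C with compounds (0.0001–100 μM) in IMDM containing 100 μM RO 20-1724 PDE inhibitor, 0.1% BSA and 2% DMSO. cAMP measured by HTRF.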

T1 sequence (P43220 24-463): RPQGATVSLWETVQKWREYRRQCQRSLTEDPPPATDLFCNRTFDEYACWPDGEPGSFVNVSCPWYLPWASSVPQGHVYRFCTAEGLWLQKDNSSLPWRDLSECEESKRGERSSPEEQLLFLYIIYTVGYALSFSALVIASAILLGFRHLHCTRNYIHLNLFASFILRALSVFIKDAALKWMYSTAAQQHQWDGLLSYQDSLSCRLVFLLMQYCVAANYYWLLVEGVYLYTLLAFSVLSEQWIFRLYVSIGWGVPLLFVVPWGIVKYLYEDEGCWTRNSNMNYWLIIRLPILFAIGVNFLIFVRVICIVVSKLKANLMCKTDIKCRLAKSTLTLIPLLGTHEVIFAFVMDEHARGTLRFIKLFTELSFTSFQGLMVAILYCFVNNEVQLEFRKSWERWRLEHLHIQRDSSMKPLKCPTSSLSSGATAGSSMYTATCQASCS

Compound: N#Cc1ccc(-c2ccc(C[C@H](NC(=O)[C@@H]3Cc4cc5c(cc4CN3C(=O)c3ccccc3)OC(c3ccc(OCc4c(Cl)cccc4Cl)cc3)C(=O)N5)C(=O)O)cc2)cc1 (stereo partly drawn) [Example 57, (S)-2-({(S)-6-Benzoyl-3-[4-(2,6-dichloro-benzyloxy)-phenyl]-2-oxo-2,3,5,6,7,8-hexahydro-1H-4-oxa-1,6-diaza-anthracene-7-carbonyl}-amino)-3-(4′-cyano-biphenyl-4-yl)-propionic acid]
EC50: 570 nM | Emax: 20%

Compound: N#Cc1ccc(-c2ccc(C[C@H](NC(=O)[C@@H]3Cc4cc5c(cc4CN3C(=O)c3ccccc3)OC(c3ccc(OCc4cccc(Cl)c4)cc3)C(=O)N5)C(=O)O)cc2)cc1 (stereo partly drawn) [Example 59, (S)-2-({(S)-6-Benzoyl-3-[4-(3-chloro-benzyloxy)-phenyl]-2-oxo-2,3,5,6,7,8-hexahydro-1H-4-oxa-1,6-diaza-anthracene-7-carbonyl}-amino)-3-(4′-cyano-biphenyl-4-yl)-propionic acid]
EC50: 750 nM | Emax: 52%

Compound: N#Cc1ccc(-c2ccc(C[C@H](NC(=O)[C@@H]3Cc4cc5c(cc4CN3C(=O)c3ccccc3)OC(c3ccc(OCc4ccc(Cl)cc4)cc3)C(=O)N5)C(=O)O)cc2)cc1 (stereo partly drawn) [Example 60, (S)-2-({(S)-6-Benzoyl-3-[4-(4-chloro-benzyloxy)-phenyl]-2-oxo-2,3,5,6,7,8-hexahydro-1H-4-oxa-1,6-diaza-anthracene-7-carbonyl}-amino)-3-(4′-cyano-biphenyl-4-yl)-propionic acid]
EC50: 1630 nM | Emax: 62%

Compound: N#Cc1ccc(-c2ccc(C[C@H](NC(=O)[C@@H]3Cc4cc5c(cc4CN3C(=O)c3ccccc3)OC(c3ccc(OCc4ccc(Cl)c(C(F)(F)F)c4)cc3)C(=O)N5)C(=O)O)cc2)cc1 (stereo partly drawn) [Example 61, (S)-2-({(S)-6-Benzoyl-3-[4-(4-chloro-3-trifluoromethyl-benzyloxy)-phenyl]-2-oxo-2,3,5,6,7,8-hexahydro-1H-4-oxa-1,6-diaza-anthracene-7-carbonyl}-amino)-3-(4′-cyano-biphenyl-4-yl)-propionic acid]
EC50: 850 nM | Emax: 29%

Compound: COc1ccc(COc2ccc(C3Oc4cc5c(cc4NC3=O)C[C@@H](C(=O)N[C@@H](Cc3ccc(-c4ccc(C#N)cc4)cc3)C(=O)O)N(C(=O)c3ccccc3)C5)cc2)cc1C(F)(F)F (stereo partly drawn) [Example 62, (S)-2-({(S)-6-Benzoyl-3-[4-(4-methoxy-3-trifluoromethyl-benzyloxy)-phenyl]-2-oxo-2,3,5,6,7,8-hexahydro-1H-4-oxa-1,6-diaza-anthracene-7-carbonyl}-amino)-3-(4′-cyano-biphenyl-4-yl)-propionic acid]
EC50: 1000 nM | Emax: 15%

Compound: CC(C)(C)OC(=O)N1Cc2cc3c(cc2C[C@H]1C(=O)N[C@@H](Cc1ccc(-c2ccc(C#N)cc2)cc1)C(=O)O)NC(=O)C(c1ccc(OCc2cnc(Cl)c(Cl)c2)cc1)O3 (stereo partly drawn) [Example 63, (S)-7-[(S)-1-Carboxy-2-(4′-cyano-biphenyl-4-yl)-ethylcarbamoyl]-3-[4-(5,6-dichloro-pyridin-3-ylmethoxy)-phenyl]-2-oxo-1,2,3,5,7,8-hexahydro-4-oxa-1,6-diaza-anthracene-6-carboxylic acid tert-butyl ester]
EC50: 476 nM | Emax: 23%

Compound: N#Cc1ccc(-c2ccc(C[C@H](NC(=O)[C@@H]3Cc4cc5c(cc4CN3C(=O)c3cccs3)OC(c3ccc(OCc4cnc(Cl)c(Cl)c4)cc3)C(=O)N5)C(=O)O)cc2)cc1 (stereo partly drawn) [Example 66, (S)-3-(4′-Cyano-biphenyl-4-yl)-2-{[(S)-3-[4-(5,6-dichloro-pyridin-3-ylmethoxy)-phenyl]-2-oxo-6-(thiophene-2-carbonyl)-2,3,5,6,7,8-hexahydro-1H-4-oxa-1,6-diaza-anthracene-7-carbonyl]-amino}-propionic acid]
EC50: 950 nM | Emax: 21%

Compound: N#Cc1ccc(-c2ccc(C[C@H](NC(=O)[C@@H]3Cc4cc5c(cc4CN3Cc3nccs3)OC(c3ccc(OCc4cccc(Cl)c4)cc3)C(=O)N5)C(=O)O)cc2)cc1 (stereo partly drawn) [Example 67, (S)-2-({(S)-3-[4-(3-Chloro-benzyloxy)-phenyl]-2-oxo-6-thiazol-2-ylmethyl-2,3,5,6,7,8-hexahydro-1H-4-oxa-1,6-diaza-anthracene-7-carbonyl}-amino)-3-(4′-cyano-biphenyl-4-yl)-propionic acid]
EC50: 1150 nM | Emax: 55%

Now from value to molecule:

EC50: 1040 nM | Emax: 52.5%
Compound: N#Cc1ccc(-c2ccc(C[C@H](NC(=O)[C@@H]3Cc4cc5c(cc4CN3Cc3ccccc3C#N)OC(c3ccc(OCc4ccc(Cl)c(Cl)c4)cc3)C(=O)N5)C(=O)O)cc2)cc1 (stereo partly drawn) [Example 53, (S)-2-({(S)-6-(2-Cyano-benzyl)-3-[4-(3,4-dichloro-benzyloxy)-phenyl]-2-oxo-2,3,5,6,7,8-hexahydro-1H-4-oxa-1,6-diaza-anthracene-7-carbonyl}-amino)-3-(4′-cyano-biphenyl-4-yl)-propionic acid]

EC50: 1080 nM | Emax: 11.8%
Compound: N#Cc1ccc(-c2ccc(C[C@H](NC(=O)[C@@H]3Cc4cc5c(cc4CN3CC3CC3)OC(c3ccc(OCc4ccc(Cl)c(Cl)c4)cc3)C(=O)N5)C(=O)O)cc2)cc1 (stereo partly drawn) [Example 54, (S)-3-(4′-Cyano-biphenyl-4-yl)-2-({(S)-6cyclopropylmethyl-3-[4-(3,4-dichloro-benzyloxy)-phenyl]-2-oxo-2,3,5,6,7,8-hexahydro-1H-4-oxa-1,6-diaza-anthracene-7-carbonyl}-amino)-propionic acid]

EC50: 216 nM | Emax: 49.4%
Compound: N#Cc1ccc(-c2ccc(C[C@H](NC(=O)[C@@H]3Cc4cc5c(cc4CN3CC#Cc3ncccn3)OC(c3ccc(OCc4ccc(Cl)c(Cl)c4)cc3)C(=O)N5)C(=O)O)cc2)cc1 (stereo partly drawn) [Example 55, (S)-3-(4′-Cyano-biphenyl-4-yl)-2-{[(S)-3-[4-(3,4-dichloro-benzyloxy)-phenyl]-2-oxo-6-(3-pyrimidin-2-yl-prop-2-ynyl)-2,3,5,6,7,8-hexahydro-1H-4-oxa-1,6-diaza-anthracene-7-carbonyl]-amino}-propionic acid]

EC50: 370 nM | Emax: 40.1%
Compound: N#Cc1ccc(-c2ccc(C[C@H](NC(=O)[C@@H]3Cc4cc5c(cc4CN3CC#Cc3ccsc3)OC(c3ccc(OCc4ccc(Cl)c(Cl)c4)cc3)C(=O)N5)C(=O)O)cc2)cc1 (stereo partly drawn) [Example 56, (S)-3-(4′-Cyano-biphenyl-4-yl)-2-{[(S)-3-[4-(3,4-dichloro-benzyloxy)-phenyl]-2-oxo-6-(3-thiophen-3-yl-prop-2-ynyl)-2,3,5,6,7,8-hexahydro-1H-4-oxa-1,6-diaza-anthracene-7-carbonyl]-amino}-propionic acid]

EC50: 565 nM | Emax: 45%
Compound: N#Cc1ccc(-c2ccc(C[C@H](NC(=O)[C@@H]3Cc4cc5c(cc4CN3C(=O)c3ccccc3)OC(c3ccc(OCc4cc(Cl)ccc4Cl)cc3)C(=O)N5)C(=O)O)cc2)cc1 (stereo partly drawn) [Example 58, (S)-2-({(S)-6-Benzoyl-3-[4-(2,5-dichloro-benzyloxy)-phenyl]-2-oxo-2,3,5,6,7,8-hexahydro-1H-4-oxa-1,6-diaza-anthracene-7-carbonyl}-amino)-3-(4′-cyano-biphenyl-4-yl)-propionic acid]

EC50: 190 nM | Emax: 36%
Compound: N#Cc1ccc(-c2ccc(C[C@H](NC(=O)[C@@H]3Cc4cc5c(cc4CN3C(=O)c3ccccc3)OC(c3ccc(OCc4cnc(Cl)c(Cl)c4)cc3)C(=O)N5)C(=O)O)cc2)cc1 (stereo partly drawn) [Example 64, (S)-2-({(S)-6-Benzoyl-3-[4-(5,6-dichloro-pyridin-3-ylmethoxy)-phenyl]-2-oxo-2,3,5,6,7,8-hexahydro-1H-4-oxa-1,6-diaza-anthracene-7-carbonyl}-amino)-3-(4′-cyano-biphenyl-4-yl)-propionic acid]

EC50: 220 nM | Emax: 32%
Compound: N#Cc1ccc(-c2ccc(C[C@H](NC(=O)[C@@H]3Cc4cc5c(cc4CN3Cc3ccccc3)OC(c3ccc(OCc4cnc(Cl)c(Cl)c4)cc3)C(=O)N5)C(=O)O)cc2)cc1 (stereo partly drawn) [Example 65, (S)-2-({(8)-6-Benzyl-3-[4-(5,6-dichloro-pyridin-3-ylmethoxy)-phenyl]-2-oxo-2,3,5,6,7,8-hexahydro-1H-4-oxa-1,6-diaza-anthracene-7-carbonyl}-amino)-3-(4′-cyano-biphenyl-4-yl)-propionic acid]

EC50: 1100 nM | Emax: 33%
Compound: CC(C)OC(=O)N1Cc2cc3c(cc2C[C@H]1C(=O)N[C@@H](Cc1ccc(-c2ccc(C#N)cc2)cc1)C(=O)O)N(C)C(=O)C(c1ccc(OCc2ccc(Cl)c(Cl)c2)cc1)O3 (stereo partly drawn) [Example 68, (S)-7-[(S)-1-Carboxy-2-(4′-cyano-biphenyl-4-yl)-ethylcarbamoyl]-3-[4-(3,4-dichloro-benzyloxy)-phenyl]-1-methyl-2-oxo-1,2,3,5,7,8-hexahydro-4-oxa-1,6-diaza-anthracene-6-carboxylic acid isopropyl ester]

EC50: 574 nM | Emax: 51%
Compound: CN1C(=O)C(c2ccc(OCc3ccc(Cl)c(Cl)c3)cc2)Oc2cc3c(cc21)C[C@@H](C(=O)N[C@@H](Cc1ccc(-c2ccc(C#N)cc2)cc1)C(=O)O)N(CC#Cc1ccccc1)C3 (stereo partly drawn) [Example 69, (S)-3-(4′-Cyano-biphenyl-4-yl)-2-{[(S)-3-[4-(3,4-dichloro-benzyloxy)-phenyl]-1-methyl-2-oxo-6-(3-phenyl-prop-2-ynyl)-2,3,5,6,7,8-hexahydro-1H-4-oxa-1,6-diaza-anthracene-7-carbonyl]-amino}-propionic acid]

EC50: 988 nM | Emax: 6.9%
Compound: CCC(c1ccccc1)N1Cc2cc3c(cc2C[C@H]1C(=O)N[C@@H](Cc1ccc(-c2ccc(C#N)cc2)cc1)C(=O)O)N(C)C(=O)C(c1ccc(OCc2ccc(Cl)c(Cl)c2)cc1)O3 (stereo partly drawn) [Example 70, (S)-3-(4′-Cyano-biphenyl-4-yl)-2-{[(S)-3-[4-(3,4-dichloro-benzyloxy)-phenyl]-1-methyl-2-oxo-6-(1-phenyl-propyl)-2,3,5,6,7,8-hexahydro-1H-4-oxa-1,6-diaza-anthracene-7-carbonyl]-amino}-propionic acid]
